Tests used:
Aromatase [1] = molecular target: T1, Aromatase (Rattus norvegicus, UniProt P22443); settings: in vivo, 30 mg/kg
T1 sequence (P22443 whole entry): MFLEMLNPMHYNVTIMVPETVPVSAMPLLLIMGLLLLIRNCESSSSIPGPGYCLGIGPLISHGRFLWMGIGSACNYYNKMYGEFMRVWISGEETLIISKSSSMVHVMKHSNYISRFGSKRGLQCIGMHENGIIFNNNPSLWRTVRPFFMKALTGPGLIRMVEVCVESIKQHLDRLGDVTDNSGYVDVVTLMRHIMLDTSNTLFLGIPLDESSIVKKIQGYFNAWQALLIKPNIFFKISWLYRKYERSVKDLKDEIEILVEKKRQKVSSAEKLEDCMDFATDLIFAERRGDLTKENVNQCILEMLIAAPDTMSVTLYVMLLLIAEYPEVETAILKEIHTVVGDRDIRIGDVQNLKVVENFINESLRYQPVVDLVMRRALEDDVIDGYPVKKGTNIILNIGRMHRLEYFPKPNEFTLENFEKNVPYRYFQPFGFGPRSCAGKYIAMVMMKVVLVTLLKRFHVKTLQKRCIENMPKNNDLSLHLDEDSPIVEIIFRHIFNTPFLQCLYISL

[2] = molecular target: T2, Cytochrome P450 18 hydroxylase (Cytochrome P450 11B2, mitochondrial) (Homo sapiens, UniProt P19099); assay: in vitro; settings: cattle
T2 sequence (P19099 whole entry): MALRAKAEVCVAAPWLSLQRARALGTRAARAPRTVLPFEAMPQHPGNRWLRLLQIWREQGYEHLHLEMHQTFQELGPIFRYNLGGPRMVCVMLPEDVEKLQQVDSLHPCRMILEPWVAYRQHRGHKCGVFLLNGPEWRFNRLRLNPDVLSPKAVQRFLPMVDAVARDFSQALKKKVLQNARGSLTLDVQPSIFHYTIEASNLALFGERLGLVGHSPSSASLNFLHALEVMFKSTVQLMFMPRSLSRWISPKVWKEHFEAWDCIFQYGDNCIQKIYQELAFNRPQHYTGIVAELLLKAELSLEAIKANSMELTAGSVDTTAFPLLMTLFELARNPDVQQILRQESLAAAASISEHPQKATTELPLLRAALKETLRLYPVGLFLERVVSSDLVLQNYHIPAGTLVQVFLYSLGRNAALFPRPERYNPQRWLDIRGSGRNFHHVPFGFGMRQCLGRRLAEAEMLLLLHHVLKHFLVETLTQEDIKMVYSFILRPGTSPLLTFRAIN

[3] = molecular target: T3, Cytochrome P450 17 (Steroid 17-alpha-hydroxylase/17,20 lyase) (Rattus norvegicus, UniProt P11715); assay: in vitro
T3 sequence (P11715 whole entry): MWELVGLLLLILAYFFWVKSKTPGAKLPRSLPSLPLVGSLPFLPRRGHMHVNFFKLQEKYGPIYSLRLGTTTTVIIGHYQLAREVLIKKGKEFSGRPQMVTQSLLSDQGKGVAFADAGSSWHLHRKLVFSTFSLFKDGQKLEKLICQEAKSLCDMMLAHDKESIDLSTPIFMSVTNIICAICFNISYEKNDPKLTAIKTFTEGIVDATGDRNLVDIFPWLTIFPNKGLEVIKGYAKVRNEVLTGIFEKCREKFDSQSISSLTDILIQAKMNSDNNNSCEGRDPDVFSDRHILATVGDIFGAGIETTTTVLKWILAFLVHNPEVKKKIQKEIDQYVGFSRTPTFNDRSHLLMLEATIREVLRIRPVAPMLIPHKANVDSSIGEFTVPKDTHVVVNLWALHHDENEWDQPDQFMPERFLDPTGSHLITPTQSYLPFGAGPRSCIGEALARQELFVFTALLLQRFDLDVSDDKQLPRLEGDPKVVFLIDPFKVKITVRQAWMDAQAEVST

[4] = molecular target: T4, Cytochrome P450 11B2, mitochondrial (Rattus norvegicus, UniProt P30099)
T4 sequence (P30099 whole entry): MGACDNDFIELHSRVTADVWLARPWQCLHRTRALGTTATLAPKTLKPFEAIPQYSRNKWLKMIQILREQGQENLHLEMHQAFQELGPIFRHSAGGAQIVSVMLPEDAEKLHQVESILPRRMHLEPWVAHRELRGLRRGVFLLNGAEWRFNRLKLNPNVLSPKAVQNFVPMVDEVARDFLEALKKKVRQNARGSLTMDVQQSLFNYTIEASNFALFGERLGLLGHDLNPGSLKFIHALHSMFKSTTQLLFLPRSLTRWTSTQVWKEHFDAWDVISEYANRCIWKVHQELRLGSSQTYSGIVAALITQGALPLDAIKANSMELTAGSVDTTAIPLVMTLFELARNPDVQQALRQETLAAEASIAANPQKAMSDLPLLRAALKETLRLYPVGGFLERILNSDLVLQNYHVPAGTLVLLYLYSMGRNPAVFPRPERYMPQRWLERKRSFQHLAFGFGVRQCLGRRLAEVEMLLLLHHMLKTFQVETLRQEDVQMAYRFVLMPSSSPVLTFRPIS

Aromatase [5] = molecular target: T1, Aromatase; settings: in vivo, 30 mg/kg; remark: listed apart in the source
Aromatase [6] = molecular target: T1, Aromatase; settings: in vivo, 30 mg/kg; remark: listed apart in the source
Aromatase [7] = molecular target: T1, Aromatase; settings: in vivo, 30 mg/kg; remark: listed apart in the source
[8] = molecular target: T4, Cytochrome P450 11B2, mitochondrial; remark: listed apart in the source
[9] = molecular target: T4, Cytochrome P450 11B2, mitochondrial; remark: listed apart in the source
[10] = molecular target: T5, Cytochrome P450 11B1, mitochondrial (Homo sapiens, UniProt P15538)
T5 sequence (P15538 whole entry): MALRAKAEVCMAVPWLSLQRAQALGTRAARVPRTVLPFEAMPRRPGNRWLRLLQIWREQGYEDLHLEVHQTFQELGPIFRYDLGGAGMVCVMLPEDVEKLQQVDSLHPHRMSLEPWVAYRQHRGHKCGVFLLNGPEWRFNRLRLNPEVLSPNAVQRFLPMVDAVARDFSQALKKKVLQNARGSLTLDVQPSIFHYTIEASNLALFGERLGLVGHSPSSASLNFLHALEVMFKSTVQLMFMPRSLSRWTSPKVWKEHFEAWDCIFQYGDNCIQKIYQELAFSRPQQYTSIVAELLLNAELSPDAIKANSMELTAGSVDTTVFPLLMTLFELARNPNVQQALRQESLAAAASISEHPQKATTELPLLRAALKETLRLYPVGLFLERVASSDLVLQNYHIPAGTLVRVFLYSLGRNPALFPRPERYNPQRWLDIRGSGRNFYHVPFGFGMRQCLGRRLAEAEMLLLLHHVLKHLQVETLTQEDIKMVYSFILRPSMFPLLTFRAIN

[11] = molecular target: T6, Steroid 17-alpha-hydroxylase/17,20 lyase (Rattus norvegicus, UniProt P11715); settings: 125 µM
T6 sequence (P11715 whole entry): T3 sequence (P11715 whole entry)

Rattus norvegicus [12] = species: Rattus norvegicus; format: functional
Rattus norvegicus [13] = species: Rattus norvegicus; format: functional; remark: listed apart in the source
Aromatase [14] = molecular target: T1, Aromatase; settings: in vivo, 30 mg/kg; remark: listed apart in the source
Rattus norvegicus [15] = species: Rattus norvegicus; format: functional; remark: listed apart in the source
Rattus norvegicus [16] = species: Rattus norvegicus; format: functional; remark: listed apart in the source
Rattus norvegicus [17] = species: Rattus norvegicus; format: functional; remark: listed apart in the source
Rattus norvegicus [18] = species: Rattus norvegicus; format: functional; remark: listed apart in the source
Rattus norvegicus [19] = species: Rattus norvegicus; format: functional; remark: listed apart in the source
Rattus norvegicus [20] = species: Rattus norvegicus; format: functional; remark: listed apart in the source
Rattus norvegicus [21] = species: Rattus norvegicus; format: functional; remark: listed apart in the source
Rattus norvegicus [22] = species: Rattus norvegicus; format: functional; remark: listed apart in the source
Rattus norvegicus [23] = species: Rattus norvegicus; format: functional; remark: listed apart in the source
Rattus norvegicus [24] = species: Rattus norvegicus; format: functional; remark: listed apart in the source
Rattus norvegicus [25] = species: Rattus norvegicus; format: functional; remark: listed apart in the source
Rattus norvegicus [26] = species: Rattus norvegicus; format: functional; remark: listed apart in the source
Rattus norvegicus [27] = species: Rattus norvegicus; format: functional; remark: listed apart in the source
Rattus norvegicus [28] = species: Rattus norvegicus; format: functional; remark: listed apart in the source
Aromatase [29] = molecular target: T1, Aromatase
Rattus norvegicus [30] = species: Rattus norvegicus; format: functional; remark: listed apart in the source
Rattus norvegicus [31] = species: Rattus norvegicus; format: functional; remark: listed apart in the source

Work on `COc1cc2c(cc1Br)CCC1C(c3ccncc3)C21` (stereo in doubt; 7) yielded an Effect (Aromatase [1]) of 176.

In the case of `COc1cccc2c1CCC1C(c3ccncc3)C21` (stereo not given), the inhibition at 1 µM [2] is reported as 38% and the inhibition at 125 µM [3] is reported as 51%.

`Oc1ccc2c(c1)C1C(CC2)C1c1ccncc1` (stereo not given) was tested, and the IC50 [4] was 7 µM.

Work on `C[C@]12CCC(=O)C=C1CC[C@@H]1[C@@H]2CC[C@]2(C)C(=O)CC[C@@H]12` [ANDROSTENEDIONE] yielded a Mean (Aromatase [5]) of 138, a Mean (Aromatase [6]) of 187 and a Mean (Aromatase [7]) of 202.

Work on `CCC1(c2ccc(N)cc2)CCC(=O)NC1=O` (stereo not given) [AMINOGLUTETHIMIDE] yielded an IC50 [8] of 80 µM and an IC50 [9] of 50 µM.

`Oc1ccc2c(c1)CCC1C(c3ccncc3)C21` (stereo not given) was tested, and the inhibition at 1 µM [2] was 36% and the inhibition at 125 µM [3] was 41%.

Compound `COc1ccc2c(c1)C1C(CC2)C1(C)c1ccncc1` (stereo not given) has an Effect (Aromatase [1]) of 139 and an inhibition at 125 µM [3] of 68%.

For `COc1ccc2c(c1)C1C(CC2)C1c1ccncc1` (single isomer, unassigned; (+)), the IC50 [4] was 6 µM, the IC50 [10] was 95 µM and the inhibition at 125 µM [3] was 54%.

`COc1ccc2c(c1)C1C(CC2)C1c1ccncc1` (stereo in doubt; (-)-4) gave an IC50 [4] of 10 µM, an Inhibition [11] of 45% and an IC50 [10] of 30 µM.

`c1ccc2c(c1)CCC1C(c3ccncc3)C21` (stereo not given) was tested, and the Tumors (Rattus norvegicus [12]) was 9%, the IC50 [8] was 3 µM and the Tumors (Rattus norvegicus [13]) was 47%. For the same compound, the Mean (Aromatase [14]) was 124, the Tumors (Rattus norvegicus [15]) was 16% and the “Change of tumor area” value (Rattus norvegicus [16]) was 36%. The Tumors (Rattus norvegicus [17]) was 28%, the inhibition at 1 µM [2] was 55% and the No. of tumors (Rattus norvegicus [18]) was 32. The inhibition at 125 µM [3] was 36% and the No. of tumors (Rattus norvegicus [19]) was 1.

With `COc1ccc2c(c1)C1C(CC2)C1c1ccncc1` (stereo in doubt; 4) the Effect (Aromatase [1]) was 132, the Tumors (Rattus norvegicus [20]) was 0% and the “Change of tumor area” value (Rattus norvegicus [21]) was 55%. For the same compound, the No. of tumors (Rattus norvegicus [22]) was 5, the No. of tumors (Rattus norvegicus [23]) was 33 and the No. of tumors (Rattus norvegicus [24]) was 10. It also gave a Tumors (Rattus norvegicus [25]) of 37%, a Tumors (Rattus norvegicus [26]) of 15% and a Tumors (Rattus norvegicus [13]) of 52%. For the same compound, the No. of tumors (Rattus norvegicus [27]) was 25, the Tumors (Rattus norvegicus [15]) was 15% and the “Change of tumor area” value (Rattus norvegicus [16]) was 29%. The IC50 [4] was 15 µM, the Tumors (Rattus norvegicus [28]) was 18% and the Inhibition [11] was 47%. It also gave an inhibition at 1 µM [2] of 45%, an IC50 [10] of 75 µM and an IC50 (Aromatase [29]) of 0.265 µM. The Tumors (Rattus norvegicus [30]) was 20% and the Tumors (Rattus norvegicus [31]) was 43%.
